Publication PMC12276038, “Impact of Chelation on Reactivity and Cytotoxicity of Hemilabile Biphenyl Gold(III) N‐Heterocyclic Carbene Complexes” (Chemmedchem, 2025)

Key:
[1] = molecules of known Log(k′w) used for calibration; cited from earlier work
[2] = Reaction with chloride ions by 1H NMR; format: physicochemical; conditions: 1 eq. chloride source, DMSO‐d6/D2O 4/1
Method: Reaction with Chloride Ions: 400 μL of freshly prepared gold complex solution in DMSO‐d6 (5 mM) was added to an NMR tube, followed by 4 μL of 0.5 M NaCl in D2O and 96 μL of D2O. Spectra were acquired straight away (t0 reference) prior to transferring the tubes to an oven set at 37 °C for 72 h. Spectra were then acquired periodically during incubation.

[3] = Log P determination by reverse-phase HPLC (OECD method); conditions: 25% water in acetonitrile (condition B)
[4] = tested on: HeLa cells; experiment: Resazurin cell proliferation assay on HeLa cells; format: cell-based, human; conditions: 72 h incubation
Description: All new 16 BGC compounds were screened against HeLa cells (cervical adenocarcinoma) to assess their antiproliferative activity through a resazurin cell viability assay.^[ [49] ^] The dose‐response curves were then fitted by a 4‐parameter sigmoid function to extract the median effective concentrations (EC50) shown in Figure 7 .
(§1) HeLa and MDA‐MB‐231 cells were cultivated in DMEM GlutaMax High Glucose supplemented with 10 vol% fetal bovine serum (FBS) and 1 vol% penicillin/streptomycin (50 U/mL and 50 μg/mL respectively). Huh‐7 cells were cultivated in MEM supplemented with 10 vol% FBS, GlutaMax (2 mM), sodium pyruvate (1 mM), nonessential amino acids mix (0.1 mM), and 1 vol% penicillin/streptomycin. MCF10A cells were cultivated in DMEM:F12 GlutaMax supplemented with 1 vol% penicillin/streptomycin, hEGF (20 ng/mL), hydrocortisone ([…]), cholera toxin (100 ng/mL), insulin (10 μg/mL), and 5 vol% horse serum. These media will be further referred as “Complete media.”
(§2) Stock solutions of the gold complexes (20 mM) were prepared in DMSO and kept at −20 °C. Serial dilutions were performed to obtain a set of 8 concentrations with a 2‐fold geometric progression, and were stored at −20 °C as well.
Cell proliferation assays were performed using resazurin as a viability indicator. Cells were seeded in 96‐well plates (2000 cells/100 μL per well) in the appropriate complete medium and allowed to grow for 24 h. Cells were then treated in triplicate with 8 different concentrations of the complexes, which were added as 100 μL of 2x dilution in culture medium containing no FBS (or containing 5% horse serum for MCF‐10 A cells), thus leading to a 5% concentration of serum in each well. After 72 h incubation, 110 μL of supernatant was removed from each well, and 10 μL of 500 μM resazurin solution (10x) in PBS were added prior to incubating the cells for 2 h. The fluorescence intensity of the reduction product resorufin was measured in each well (540 nm excitation, 590 nm reading), and cellular viability was computed as the fluorescence ratio between sample and DMSO control wells after blank subtraction. The EC50 value was computed by fitting the data with a 4‐parameter sigmoid σ through nonlinear least square regression, where the EC50 value is directly the c parameter. The regression was performed using curve_fit() function scipy.optimize module in python (scripts available^[ [60] ^]). σ(x,a,b,c,d)=d+a−d/1+(x/c)^b

[5] = tested on: Huh‐7; experiment: Resazurin cell proliferation assay on Huh-7 cells; format: cell-based, human; conditions: Huh‐7, 72 h incubation
Description: (§3) Considering the equivalent activities for neutral and cationic analogs, only cationic representatives of the BGC12, BGC18, and BGC19 couples were further screened on two other human cancer cell lines including hepatic carcinoma Huh‐7 and “triple negative” breast adenocarcinoma MDA‐MB‐231 and noncancerous epithelial breast cells MCF‐10 A (Table 1 ).
as §1, §2
(§4) Cell proliferation assays were performed using resazurin as a viability indicator. Cells were seeded in 96‐well plates (2000 cells/100 μL per well) in the appropriate complete medium and allowed to grow for 24 h. Cells were then treated in triplicate with 8 different concentrations of the complexes, which were added as 100 μL of 2x dilution in culture medium containing no FBS (or containing 5% horse serum for MCF‐10 A cells), thus leading to a 5% concentration of serum in each well. […] The fluorescence intensity of the reduction product resorufin was measured in each well (540 nm excitation, 590 nm reading), and cellular viability was computed as the fluorescence ratio between sample and DMSO control wells after blank subtraction. […]

[6] = tested on: MDA‐MB‐231; experiment: Resazurin cell proliferation assay on MDA-MB-231 cells; format: cell-based, human; conditions: MDA‐MB‐231, 72 h incubation
Description: as §3, §1, §2, §4

[7] = tested on: MCF‐10 A; experiment: Resazurin cell proliferation assay on noncancerous MCF-10A cells; format: cell-based, human; conditions: MCF‐10 A noncancerous cells, 72 h incubation
Description: as §3, §1, §2, §4

[8] = Speciation in DMSO-d6/serum-free DMEM by 1H NMR; format: physicochemical; conditions: 3/1 DMSO‐d6/serum‐free DMEM, immediately after mixing (t < 5 min)
Method: Speciation in DMEM: NMR spectra were recorded on a Bruker Avance II 300 spectrometer (7 T) operating at a ^1H Larmor frequency of 300.13 MHz with a 5 mm observe broadband probe (QNP) z‐axis (^31P/^19 F/^13C/^1H) at 27 °C.
Solutions of the gold complexes (10 mM) were freshly prepared in DMSO‐d6. Samples were prepared by mixing 200 μL of complex solution with 100 μL (resp. 67 μL) of pure DMSO‐d6 and 100 μL (resp. 133 μL) of DMEM GlutaMax High glucose without FBS. ^1H NMR spectra were acquired immediately after mixing (t < 5 min) using a standard zg30 sequence to determine the resonant frequency of water in the tube. Further spectra were acquired using a cpmg‐esgp1d sequence (pulse program available^[ [60] ^]) which carrier frequency (O1P) was tuned to the water peak maximum to ensure optimal water suppression. The Hahn echo time (D20) was left null to acquire a spectrum without the use of T2‐gating. A particular attention was paid to the shimming process as poor shims result in a broader water signal thus leading to an inefficient water suppression.

[9] = tested on: mitochondrial membrane potential of HeLa cells; experiment: Mitochondrial membrane polarization JC-10 endpoint assay; format: cell-based, human; conditions: 10 μM, 1 h or 4 h
Method: Several gold complexes were previously reported to accumulate in mitochondria^[ [50], [51] ^] or even to disrupt their membrane potential.^[ [27], [52], [53] ^] We therefore investigated the possible antimitochondrial activity of BGC19b, chosen as a representative of the most toxic compounds. Briefly, we incubated HeLa cells with BGC19b (1 h or 4 h) or CCCP (4 h) as positive control and monitored the mitochondrial membrane potential through a JC‐10 endpoint assay.
HeLa cells were seeded in a 96‐well plate (2000 cells in 100 μL complete medium per well) and left to adhere. Cells were then treated in triplicate with gold complexes (addition of 100 μL of 2x complex solution in FBS‐free medium) 4 h and 1 h before reading the plate. A control triplicate was treated with CCCP (10 μM) and incubated for 4 h before reading. One hour before reading, 100 μL of supernatant was withdrawn from each well and replaced with JC‐10 in assay buffer A solution (Abcam, 1x, 50 μL). Cells were incubated with the marker for 1 h, and assay buffer B (50 μL) was added. Mitochondrial membrane potential was assessed by computing the ratio of fluorescence intensities between aggregated (λ ex = 540 nm, λ fluo = 590 nm) and nonaggregated JC‐10 (λ ex = 490 nm, λ fluo = 525 nm). […]

[10] = tested on: HeLa cells; experiment: Resazurin viability run in parallel to the JC-10 assay; format: cell-based, human; conditions: 10 μM, 1 h and 4 h
[11] = tested on: effector caspases 3 and 7 in HeLa cells; experiment: Caspase 3/7 activity and cellular morphology by time lapse videomicroscopy; format: cell-based, human; conditions: for Rate of apoptosis induction (caspase activation kinetics): BGC19b 1.7 μM, CCCP 10 μM
Method: Apoptosis is a possible outcome of energy shortage in cells following mitochondrial depolarization. We thus monitored the activity of the effector caspases 3 and 7, as a readout of cell apoptosis. The overall cellular morphology was analyzed in parallel.
HeLa cells were seeded in an 8‐well Ibidi slide (4000 cells in 500 μL complete medium per well) and allowed to grow for 24 h. The culture medium was changed to a fresh one (DMEM 5% FBS, 200 μL) containing SiR‐DNA dye (Spirochrome, 1 μM) and CellEvent Caspase 3/7 Green marker (ThermoFisher, 1 μM). […] Cells were monitored for 24 h (20 min step between images) by phase contrast and fluorescence microscopy (Cy5 and EGFP filters for SiR‐DNA and CellEvent Caspase 3/7 markers, respectively). Images were processed using Fiji, and cellular viabilities were extracted as Viability=1−NEGFP/NCy5 where N i denotes the number of cells counted in channel i. Cells were counted in EGFP and Cy5 channels using TrackMate (DoG detector + Simple LAP tracker).^[ [62] ^] The cellular morphology was also manually monitored using the phase contrast channel by tagging cells losing adhesion and displaying blebs.^[ [60] ^]

[12] = design: method as in PMID 29277693; conditions: read-out: EC50 of CCCP; cited from earlier work
[13] = Solvolysis / stability in DMSO-d6 and DMSO-d6/D2O by 1H NMR; format: physicochemical; conditions: 24 h incubation at 37 °C in DMSO
Method: Solvolysis Kinetics: 400 μL of freshly prepared gold complex solution in DMSO‐d6 (5 mM) was transferred to an NMR tube. Spectra were acquired straight away (t0 reference) prior to transferring the tubes to an oven set at 37 °C for 72 h. Spectra were then acquired periodically during incubation. The same procedure was repeated with addition of 100 μL of D2O to each tube.
Solvolysis: A concentrated solution of gold complex (≈40 mM) was prepared in 1 mL DMSO‐d6 mixed with 250 μL of D2O and incubated at 37 °C for 24 h. The solution was then extracted 5 times with 3 mL DCM. The DCM phase was recovered and evaporated thoroughly, and the resulting residue was dissolved in MeCN‐d3 and analyzed by ^1H NMR.

## c1ccc2ccccc2c1 [Naphtalene]
[1]
  log(k’w) of log P standard mix: 3.6

## COc1cc[n+]2c(c1)Cn1cc[n+](C)[c]1[Au-]21[c]2cc(C(C)(C)C)ccc2-c2ccc(C(C)(C)C)c[c]21.F[P-](F)(F)(F)(F)F [BGC15b]
[2]
  Conversion of cationic to neutral form on addition of chloride: converted back quantitatively and instantaneously
[3]
  Log P (cationic b, form): 4.2

## Cc1cccc2[n+]1[Au-]1([c]3cc(C(C)(C)C)ccc3-c3ccc(C(C)(C)C)c[c]31)[c]1n(cc[n+]1C)C2.F[P-](F)(F)(F)(F)F [BGC13b]
[3]
  Log P (cationic b, form): 4.4

## CC(C)(C)c1ccc2[c](c1)[Au-]1([c]3cc(C(C)(C)C)ccc3-2)[c]2n3ccccc3c[n+]2Cc2cccc[n+]21.F[P-](F)(F)(F)(F)F [BGC19b]
[4]
  EC50: 1800 ± 600 nM
[5]
  EC50: 1400 ± 100 nM
[6]
  EC50: 2000 ± 100 nM
[7]
  EC50: 1600 ± 400 nM
[2]
  Conversion of cationic to neutral form on addition of chloride: converted back quantitatively and instantaneously
[8]
  Species identified in culture medium mixture: only the neutral complexes were identified
[9]
  Mitochondrial membrane depolarization: significant mitochondrial membrane depolarization
[10]
  Change in cell viability during JC-10 assay: no significant change in cell viability
[11]; 1.7 μM
  Induction period before adhesion loss, blebs and caspase 3/7 activation: around 4 h
[11]
  Rate of apoptosis induction (caspase activation kinetics): induces apoptosis much faster than CCCP
[3]
  Log P (cationic b, form): 4.3

## C[n+]1ccn2[c]1[Au-]1([c]3cc(C(C)(C)C)ccc3-c3ccc(C(C)(C)C)c[c]31)[n+]1c(ccc3ccccc31)C2.F[P-](F)(F)(F)(F)F [BGC16b]
[4]
  EC50: 3200 ± 300 nM
[3]
  Log P (cationic b, form): 4.5

## Cc1cc[n+]2c(c1)Cn1cc[n+](C)[c]1[Au-]21[c]2cc(C(C)(C)C)ccc2-c2ccc(C(C)(C)C)c[c]21.F[P-](F)(F)(F)(F)F [BGC14b]
[3]
  Log P (cationic b, form): 4.8

## CCCCCCCCc1ccccc1 [Octylbenzene]
[1]
  log(k’w) of log P standard mix: 6.3

## C[n+]1ccn2[c]1[Au-]1([c]3cc(C(C)(C)C)ccc3-c3ccc(C(C)(C)C)c[c]31)[n+]1ccncc1C2.F[P-](F)(F)(F)(F)F [BGC17b]
[3]
  Log P (cationic b, form): 3.5

## N#CC(C#N)=NNc1cccc(Cl)c1 [CCCP, reference compound]
[11]
  Rate of apoptosis induction (caspase activation kinetics): occurred at a much slower rate compared to BGC19b
[12]
  EC50: 10000 nM

## COc1ccccc1 [Anisole]
[1]
  log(k’w) of log P standard mix: 2.1

## C[n+]1[c]2n(c3ccccc31)Cc1cccc[n+]1[Au-]21[c]2cc(C(C)(C)C)ccc2-c2ccc(C(C)(C)C)c[c]21.F[P-](F)(F)(F)(F)F [BGC18b]
[4]
  EC50: 2800 ± 700 nM
[5]
  EC50: 2500 ± 400 nM
[6]
  EC50: 4400 ± 800 nM
[7]
  EC50: 2800 ± 500 nM
[3]
  Log P (cationic b, form): 4.5

## C[n+]1ccn2[c]1[Au-]1([c]3cc(C(C)(C)C)ccc3-c3ccc(C(C)(C)C)c[c]31)[n+]1ccccc1C2.F[P-](F)(F)(F)(F)F [BGC12b]
[4]
  EC50: 1800 ± 100 nM
[5]
  EC50: 1800 ± 100 nM
[6]
  EC50: 2900 ± 100 nM
[7]
  EC50: 1200 ± 300 nM
[13]
  Spectra in MeCN‐d3 after incubation in DMSO and extraction in DCM: unchanged
[2]
  Conversion of cationic to neutral form on addition of chloride: converted back quantitatively and instantaneously
[8]
  Species identified in culture medium mixture: only the neutral complexes were identified
[3]
  Log P (cationic b, form): 3.9
